# Data as given in patent US20070259879A1, “Piperazine and piperidine biaryl derivatives” (priority 2006, published 2007).
# System: HIV-1 pseudotyped virus
# Experiment: HIV-1 pseudotyped virus assay (luciferase reporter gene, single cycle of infection)
# Assay type: cell-based
# Settings: Human immunodeficiency virus 1, CCR5, 72 h, read-out: Activity (antiviral activity, IC50)
# Description: In this example are illustrated experimental procedures for determining biological activity, such as antiviral activity. For determining biological activity, an HIV-1 infection assay was used to determine the antiviral potency for compounds of the present invention.
# For determining biological activity, an HIV-1 pseudotyped virus assay was used to determine the respective antiviral potencies of each compound tested in the assay for comparison. The pseudotyped assay scores for a reduction in infection as indicated by decreased signal from the reporter gene encoding a luciferase enzyme (“reporter gene”). The assay employs cell lines expressing CD4 and either of the primary chemokine receptors (CCR5 or CXCR4) that HIV uses as a co-receptor (“target cells”). Pseudotyped virus was prepared by co-transfection of 293T cells with: 1) a plasmid construct carrying the HIV-1 envelope of choice, in combination with 2) a pseudotyped virus backbone construct in which (a) envelope expression has been abrogated due to a frameshift in the envelope sequence, and (b) the reporter gene replaces nef. Expression of HIV-1 envelope on 293T packaging cells results in the production of a pseudotyped virus carrying the reporter gene that is capable of a single cycle of infection.
# The compounds of the present invention being tested for antiviral activity were serially diluted and dose responses determined in duplicate in two separate experiments. The compounds to be tested were added directly to the plated, target cells, followed by the addition of pseudotyped virus described above. The cells were cultured for three days prior harvest. Media and compound were removed, the cell monolayer was washed, lysed by detergent, and then frozen at −80 degrees C. for a minimum of 30 minutes. Following thawing and acclimation to room temperature, luciferase production was quatified by injecting 100 […]I of a substrate (of the enzyme encoded by the reporter gene) into each well followed by detecting the signal (light emitted from the interaction between the enzyme and substrate) after 5 seconds. In the pseudotyped assay, a 50% reduction in signal is significant, and provides the primary cutoff value for assessing antiviral activity (“IC50” is defined as the dilution resulting in a 50% reduction in enzymatic activity as interpolated from a titration curve). Representative compounds according to the present invention, and their antiviral activity, are illustrated in Table 3.
row,Compound,IC50 [µM]
1,C[C@@H]1CN(C(=O)c2ccccc2)CCN1C(=O)C(=O)c1ccc(-c2cscn2)cc1 [Example 177],< 5
2,C[C@@H]1CN(C(=O)c2ccccc2)CCN1C(=O)C(=O)c1ccc(-c2cscn2)s1 [Example 178],< 5
3,C[C@@H]1CN(C(=O)c2ccccc2)CCN1C(=O)C(=O)c1ccc(-c2cncs2)s1 [Example 179],< 5
4,COc1cc(-c2cc(C)no2)ccc1C(=O)C(=O)N1CCN(C(=O)c2ccccc2)C[C@H]1C [Example 180],< 5
5,"Cc1cc(-c2cc[nH]n2)ccc1C(=O)C(=O)N1CCN(C(=O)c2ccccc2)C[C@H]1C [Example 181, 1-((R)-4-Benzoyl-2-methyl-piperazin-1-yl)-2-[2-methyl-4-(1H-pyrazol-3-yl)-phenyl]-ethane-1,2-dione]",< 5
6,Cc1ncc(-c2ccc(C(=O)C(=O)N3CCN(C(=O)c4ccccc4)C[C@H]3C)s2)s1 [Example 182],> 5
7,C[C@@H]1CN(C(=O)c2ccccc2)CCN1C(=O)C(=O)c1ccc(-c2cc[nH]n2)cc1F [Example 183],< 5
8,"Cc1cc(C(=O)C(=O)N2CCN(C(=O)c3ccccc3)C[C@H]2C)ccc1-c1cc[nH]n1 [Example 184, 1-((R)-4-Benzoyl-2-methyl-piperazin-1-yl)-2-[3-methyl-4-(1H-pyrazol-3-yl)-phenyl]-ethane-1,2-dione]",< 5
9,COc1cc(C(=O)C(=O)N2CCN(C(=O)c3ccccc3)C[C@H]2C)ccc1-c1cc(C)no1 [Example 185],< 5
10,"C[C@@H]1CN(C(=O)c2ccccc2)CCN1C(=O)C(=O)c1ccc(-c2ccn[nH]2)nc1 [Example 186, 1-((R)-4-Benzoyl-2-methyl-piperazin-1-yl)-2-[6-(1H-pyrazol-3-yl)-pyridin-3-yl]-ethane-1,2-dione]",< 5
11,C[C@@H]1CN(C(=O)c2ccccc2)CCN1C(=O)C(=O)c1ccc(-c2nccn2C)cc1 [Example 187],> 5
12,C[C@@H]1CN(C(=O)c2ccccc2)CCN1C(=O)C(=O)c1ccc(-c2nccn2C)s1 [Example 188],> 5
13,C[C@@H]1CN(C(=O)c2ccccc2)CCN1C(=O)C(=O)c1ccc(-c2cnco2)c(Cl)c1 [Example 189],< 5
14,COc1cc(-c2cc[nH]n2)ccc1C(=O)C(=O)N1CCN(C(=O)c2ccccc2)C[C@H]1C [Example 190],< 5
15,COc1cc(C(=O)C(=O)N2CCN(C(=O)c3ccccc3)C[C@H]2C)ccc1-c1cc[nH]n1 [Example 191],< 5
16,C[C@@H]1CN(C(=O)c2ccccc2)CCN1C(=O)C(=O)c1ccc(-c2cc[nH]n2)cc1Cl [Example 192],< 5
17,"C[C@@H]1CN(C(=O)c2ccccc2)CCN1C(=O)C(=O)c1ccc(-n2cccn2)cc1 [Example 193, 1-((R)-4-Benzoyl-2-methyl-piperazin-1-yl)-2-(4-pyrazol-1-yl-phenyl)-ethane-1,2-dione]",< 5
18,Cc1noc(C)c1-c1ccc(C(=O)C(=O)N2CCN(C(=O)c3ccccc3)C[C@H]2C)cn1 [Example 194],> 5
19,"Cc1cc(-n2cccn2)ccc1C(=O)C(=O)N1CCN(C(=O)c2ccccc2)C[C@H]1C [Example 195, 1-((R)-4-Benzoyl-2-methyl-piperazin-1-yl)-2-(2-methyl-4-pyrazol-1-yl-phenyl)-ethane-1,2-dione]",> 5
20,C[C@@H]1CN(C(=O)c2ccccc2)CCN1C(=O)C(=O)c1c[nH]c(-c2cccnc2)c1 [Example 196],> 5
21,CC1CN(C(=O)c2ccccc2)CCN1C(=O)C(=O)c1ccc(-c2cnn(C)c2)cc1 (stereo not shown) [Example 197],< 5
22,CC(=O)c1ccc(-c2ccc(C(=O)C(=O)N3CCN(C(=O)c4ccccc4)C[C@H]3C)cc2)s1 [Example 198],< 5

row,Compound,IC50 [µM]
1,C[C@@H]1CN(C(=O)c2ccccc2)CCN1C(=O)C(=O)c1ccc(-c2cccnc2)cc1 [Example 199],< 5
2,CC1CN(C(=O)c2ccccc2)CCN1C(=O)C(=O)c1ccc(-c2ncccc2F)cc1 (stereo not shown) [Example 200],< 5
3,C[C@@H]1CN(C(=O)c2ccccc2)CCN1C(=O)C(=O)c1ccc(-c2ccc(C(F)(F)F)cn2)cc1 [Example 201],< 5
4,COc1cc(-c2ccc(C(=O)C(=O)N3CCN(C(=O)c4ccccc4)C[C@H]3C)cc2)nc(OC)n1 [Example 202],< 5
5,C[C@@H]1CN(C(=O)c2ccccc2)CCN1C(=O)C(=O)c1ccc(-c2ncccn2)cc1 [Example 203],< 5
6,C[C@@H]1CN(C(=O)c2ccccc2)CCN1C(=O)C(=O)c1ccc(-c2ccsc2)cc1 [Example 204],< 5
7,C[C@@H]1CN(C(=O)c2ccccc2)CCN1C(=O)C(=O)c1ccc(-c2cccs2)cc1 [Example 205],< 5
8,C[C@@H]1CN(C(=O)c2ccccc2)CCN1C(=O)C(=O)c1ccc(-c2ccncc2)cc1 [Example 206],< 5
9,Cc1ccc(-c2ccc(C(=O)C(=O)N3CCN(C(=O)c4ccccc4)C[C@H]3C)cc2)nc1 [Example 207],< 5
10,Cc1ccnc(-c2ccc(C(=O)C(=O)N3CCN(C(=O)c4ccccc4)CC3C)cc2)n1 (stereo not shown) [Example 208],< 5
11,Cc1cc(-c2ccc(C(=O)C(=O)N3CCN(C(=O)c4ccccc4)C[C@H]3C)c(Cl)c2)on1 [Example 209],< 5
12,Cc1cc(-c2ccc(C(=O)C(=O)N3CCN(C(=O)c4ccccc4)C[C@H]3C)cc2F)on1 [Example 210],< 5
13,"C[C@@H]1CN(C(=O)c2ccccc2)CCN1C(=O)C(=O)c1ccc(N2CCCC2)cc1 [Example 211, 1-((R)-4-Benzoyl-2-methyl-piperazin-1-yl)-2-(4-pyrrolidin-1-yl-phenyl)-ethane-1,2-dione]",> 5
14,"C[C@@H]1CN(C(=O)c2ccccc2)CCN1C(=O)C(=O)c1ccc(N2CCOC2=O)cc1 [Example 212, 1-((R)-4-Benzoyl-2-methyl-piperazin-1-yl)-2-[4-(2-oxo-oxazolidin-3-yl)-phenyl]-ethane-1,2-dione]",> 5
15,"Cc1cc(C(=O)C(=O)N2CCN(C(=O)c3ccccc3)C[C@H]2C)ccc1-n1cccn1 [Example 213, 1-((R)-4-Benzoyl-2-methyl-piperazin-1-yl)-2-(3-methyl-4-pyrazol-1-yl-phenyl)-ethane-1,2-dione]",> 5
16,"C[C@@H]1CN(C(=O)c2ccccc2)CCN1C(=O)C(=O)c1ccc(-n2cccn2)nc1 [Example 214, 1-((R)-4-Benzoyl-2-methyl-piperazin-1-yl)-2-(6-pyrazol-1-yl-pyridin-3-yl)-ethane-1,2-dione]",< 5
17,"C[C@@H]1CN(C(=O)c2ccccc2)CCN1C(=O)C(=O)c1ccc(-c2cc[nH]n2)cc1N(C)C [Example 216, 1-((R)-4-Benzoyl-2-methyl-piperazin-1-yl)-2-[2-dimethylamino-4-(1H-pyrazol-3-yl)-phenyl]-ethane-1,2-dione]",> 5
18,C[C@@H]1CN(C(=O)c2ccccc2)CCN1C(=O)C(=O)c1ccc(-n2ccnc2)cc1 [Example 217],< 5
19,Cc1cc(-n2ccnc2)ccc1C(=O)C(=O)N1CCN(C(=O)c2ccccc2)C[C@H]1C [Example 218],< 5
20,"C[C@@H]1CN(C(=O)c2ccccc2)CCN1C(=O)C(=O)c1ccc(-c2cc[nH]n2)cc1N [Example 219, 1-((R)-4-Benzoyl-2-methyl-piperazin-1-yl)-2-[2-amino-4-(1H-pyrazol-3-yl)-phenyl]-ethane-1,2-dione]",< 5
21,Cc1cc(-c2cc(Cl)c(C(=O)C(=O)N3CCN(C(=O)c4ccccc4)C[C@H]3C)c(Cl)c2)on1 [Example 220],> 5
